Holding throughout (assay): growth of human tumour cells (NCI), 48 h
Test [1] has as its system NCI-H226 lung.
The test system of test [2] is HOP-62 NSCLC.
For test [3], the system named is UACC-62 melanoma.
Test [4] relates to SF-539 CNS.
Test [5] relates to SN12C renal.
In test [6] the test system is ACHN renal.
Test [7] concerns EKVX NSCLC.
Test [8] has as its system RPMI-8226 leukemia.
In test [9] the test system is HCT-15 colon.
The subject of test [10] is SK-MEL-28 melanoma.

The source of these data is PubChem BioAssay (NCI).

Each structure is given as a SMILES string.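 Each compound was tested at five concentrations against cells in 96-well plates for 48 hours. GI50 is the concentration that inhibits growth by half. The concentration for full growth arrest is given as TGI.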

Turning to `Cn1cc(C(=O)C[n+]2ccccc2)c2ccccc21`, the TGI in [1] was 59.1 µM; in test [2], greater than 100 µM; in test [3], greater than 100 µM; in test [4] it was greater than 100 µM; in [5], greater than 100 µM; in [6] it was greater than 100 µM. In addition, the TGI was 88.3 µM in test [7], greater than 100 µM in test [8] and greater than 100 µM in test [9].
Take `O=c1c2cc(Cl)ccc2sc2cccc(Cl)c12`: the TGI in test [1], in test [2], in [3], in test [4], in test [5] and in test [10] was greater than 100 µM throughout. The TGI in test [6], in test [7], in [8] and in [9] was greater than 100 µM each time.
Take `CCNC(=O)O[C@H]1CN[C@H](C#Cc2cc3ncnc(Nc4ccc(OCc5cccc(F)c5)c(Cl)c4)c3s2)C1`: the GI50 was 7.09 µM in test [1]; 14.9 µM in test [2]; 17 µM in test [3]; 5.77 µM in test [4]; 5.71 µM in test [5]; greater than 25 µM in [10]. Besides, the GI50 in [6] was 1.99 µM; in [7], 0.668 µM; in test [8] it was 5.41 µM; in test [9], 9.83 µM. For the same molecule, the TGI was greater than 21.1 µM in [1]; greater than 25 µM in test [2]; greater than 25 µM in test [3]; greater than 18.4 µM in [4]; greater than 25 µM in test [5]; greater than 25 µM in test [10]. Besides, the TGI in test [6] is greater than 25 µM; in test [7], greater than 14.8 µM; in test [8] it was greater than 23.4 µM; in [9] it was greater than 25 µM.
Turning to `Cc1cccc(C)c1NC(=O)C(=O)Nn1c(NN)nc2ccccc2c1=O`, the TGI in test [1], in test [2], in [3], in test [4], in test [5] and in test [10] was greater than 100 µM in each case. Further, the TGI in test [6], in test [7], in test [8] and in test [9] was greater than 100 µM in each case.
Consider `N#CC1(C#N)C(C#N)(C#N)C12CCCCCC2`, for which the TGI in test [1] was 47.5 µM; in test [2] it was greater than 89.4 µM; in [3], 18.4 µM; in test [4] it was 18 µM; in test [5], 33.7 µM; in test [10] it was 21.4 µM. Moreover, the TGI in test [6] was 23.2 µM; in test [7], 31.9 µM; in [8], greater than 35.1 µM; in test [9], 24.2 µM.
`Cc1ccc(Cl)cc1NC(=O)c1sc2nc3c(cc2c1N)C(=O)CCC3`: the GI50 is greater than 100 µM in test [1]; greater than 100 µM in [2]; 4.45 µM in test [3]; 4.65 µM in test [4]; greater than 100 µM in test [10]; 50.4 µM in [6]. Also, the GI50 in [7] is 7.26 µM; in test [8], greater than 100 µM; in [9] it was 4.79 µM. For the same molecule, the TGI in [1], in test [2], in test [3], in test [4], in [10] and in test [6] was greater than 100 µM each time. In addition, the TGI in [7], in test [8] and in [9] was greater than 100 µM in each case.
Regarding `O=C1CCc2c(sc3[nH]c(=S)n(Cc4ccc(Cl)cc4)c(=O)c23)C1`, the GI50 is 1.99 µM in [1]; 1.47 µM in test [2]; 0.329 µM in [3]; 0.356 µM in [4]; 0.384 µM in test [5]; 0.64 µM in test [10]. The GI50 was 0.465 µM in test [6], 0.544 µM in test [7], 0.383 µM in test [8] and 0.347 µM in test [9]. The TGI was 14.5 µM in test [1]; greater than 100 µM in test [2]; 1.76 µM in test [3]; 1.63 µM in test [4]; greater than 84.7 µM in test [5]; greater than 21.1 µM in test [10]. Moreover, the TGI is 3.63 µM in test [6], greater than 100 µM in test [7] and 1.64 µM in test [9].
For the molecule `CSc1nc(SC)c2c(CO)c(Br)n(Cc3ccccc3)c2n1`, the TGI in test [1] is 39.3 µM; in [2] it was 80.1 µM; in test [3], 41.9 µM; in test [4], 29.1 µM; in test [5] it was greater than 100 µM; in test [10] it was greater than 100 µM. The TGI in test [6] is 44.7 µM; in test [7], greater than 100 µM; in test [8], greater than 100 µM; in [9] it was greater than 100 µM.
As for `C=C1CC2(OC1=O)C(=O)Nc1ccccc12` (stereo unspecified), the GI50 was 1.85 µM in [1]; 12.6 µM in test [2]; 2.23 µM in test [3]; 1.88 µM in [4]; 3.74 µM in test [5]; 1.99 µM in test [10]. The GI50 was 1.09 µM in test [6], 13.5 µM in test [7], 1.8 µM in test [8] and 1.51 µM in test [9]. For the same molecule, the TGI in [1] was determined as 5.24 µM; in [2] it was 29.6 µM; in test [3], 6.76 µM; in test [4] it was 3.81 µM; in test [5] it was 14.1 µM; in test [10] it was 4.26 µM. Further, the TGI was found to be 2.29 µM in test [6], 26.7 µM in test [7], 5.94 µM in [8] and 3.69 µM in test [9].
`CC(=O)OCC1OC(n2c(-c3ccc(C)cc3)cc(-c3ccccc3)c(C#N)c2=O)C(OC(C)=O)C(OC(C)=O)C1OC(C)=O` (stereo unspecified): the TGI in test [1], in test [2], in test [3], in test [4], in [5] and in test [10] was greater than 100 µM each time. Moreover, the TGI in test [6], in test [7], in test [8] and in [9] was greater than 100 µM each time.
